Measured values as given in US10287258B2, “Certain (2S)-N-[(1S)-1-cyano-2-phenylethyl]-1,4-oxazepane-2-carboxamides as dipeptidyl peptidase 1 inhibitors” (AstraZeneca AB, priority 2014, dated 2019).

Target: recombinant human DPP1 (rhDPP1) (Homo sapiens (Human), UniProt P53634)
Experiment: Test A1: Fluorescence assay for recombinant human (RH) DPP1
Assay type: biochemical
Conditions: Test A1 (Examples 1-35), rhDPP1 ~50 pM, 100 μM H-Gly-Arg-AMC, pH 5.0, 22° C.
Protocol: Test A1: Fluorescence Assay for Recombinant Human (RH) DPP1
The activity of DPP1 was determined by measuring the enzymatic release of aminomethyl coumarin (AMC) from the peptide substrate (H-Gly-Arg-AMC), which leads to an increase in fluorescence intensity at λex=350 nm and λem=450 nm. The assay was carried out in black 384 well plates in a final volume of 50 μl at 22° C. The assay conditions contained the following: 25 mM piperazine buffer pH 5.0; 50 mM NaCl, 5 mM DTT; 0.01% (v/v) Triton X-100; 100 μM H-Gly-Arg-AMC and rhDPP1 (˜50 pM). […] Routinely, inhibitors were pre-incubated with rhDPP1 for 30-60 min prior to the addition of the peptide substrate to start the reaction for a further 60 min at 22° C.

Sequence of recombinant human DPP1 (rhDPP1) (P53634 231-394): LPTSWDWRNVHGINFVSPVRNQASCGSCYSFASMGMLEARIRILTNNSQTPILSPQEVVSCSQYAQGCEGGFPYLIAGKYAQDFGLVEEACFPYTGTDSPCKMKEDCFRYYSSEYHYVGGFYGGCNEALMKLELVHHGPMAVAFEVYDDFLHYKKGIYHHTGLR
Sequence of recombinant human DPP1 (rhDPP1) (P53634 25-134): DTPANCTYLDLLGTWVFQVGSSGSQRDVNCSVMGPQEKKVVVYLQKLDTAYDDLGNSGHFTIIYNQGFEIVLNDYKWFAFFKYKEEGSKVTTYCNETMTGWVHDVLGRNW
Sequence of recombinant human DPP1 (rhDPP1) (P53634 395-463): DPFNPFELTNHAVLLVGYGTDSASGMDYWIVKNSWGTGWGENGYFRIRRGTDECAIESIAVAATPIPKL

SMILES | DPP1 activity, pIC50 | IC50 (read-out: DPP1 activity, pIC50 (converted))
Cn1c(=O)ccc2ccc(-c3ccc(C[C@@H](C#N)NC(=O)[C@@H]4CNCCCO4)cc3)cc21 [Example 24, (2S)-N-{(1S)-1-Cyano-2-[4-(1-methyl-2-oxo-1,2-dihydroquinolin-7-yl)phenyl]ethyl}-1,4-oxazepane-2-carboxamide] | 7.86 | –
CN1C(=O)COc2ccc(-c3ccc(C[C@@H](C#N)NC(=O)[C@@H]4CNCCCO4)cc3)cc21 [Example 20, (2S)-N-{(1S)-1-Cyano-2-[4-(4-methyl-3-oxo-3,4-dihydro-2H-1,4-benzoxazin-6-yl)phenyl]ethyl}-1,4-oxazepane-2-carboxamide] | 7.9 | –
Cc1noc2ccc(-c3ccc(C[C@@H](C#N)NC(=O)[C@@H]4CNCCCO4)cc3)cc12 [Example 5, (2S)-N-{(1S)-1-Cyano-2-[4-(3-methyl-1,2-benzoxazol-5-yl)phenyl]ethyl}-1,4-oxazepane-2-carboxamide] | 7.79 | –
N#C[C@H](Cc1ccc(-c2ccc3oc(=O)n(CC(F)F)c3c2)cc1)NC(=O)[C@@H]1CNCCCO1 [Example 27, (2S)-N-[(1S)-1-Cyano-2-{4-[3-(2,2-difluoroethyl)-2-oxo-2,3-dihydro-1,3-benzoxazol-5-yl]phenyl}ethyl]-1,4-oxazepane-2-carboxamide] | 8.18 | –
Cn1c(=O)oc2c(Cl)cc(-c3ccc(C[C@@H](C#N)NC(=O)[C@@H]4CNCCCO4)cc3)cc21 [Example 26, (2S)-N-{(1S)-2-[4-(7-Chloro-3-methyl-2-oxo-2,3-dihydro-1,3-benzoxazol-5-yl)phenyl]-1-cyanoethyl}-1,4-oxazepane-2-carboxamide] | 7.87 | –
COCCn1c(=O)oc2ccc(-c3ccc(C[C@@H](C#N)NC(=O)[C@@H]4CNCCCO4)cc3)cc21 [Example 21, (2S)-N-[(1S)-1-Cyano-2-{4-[3-(2-methoxyethyl)-2-oxo-2,3-dihydro-1,3-benzoxazol-5-yl]phenyl}ethyl]-1,4-oxazepane-2-carboxamide] | 8.09 | –
N#C[C@H](Cc1ccc(-c2ccc(F)c(F)c2)cc1)NC(=O)[C@@H]1CNCCCO1 [Example 7, (2S)-N-[(1S)-1-Cyano-2-(3′,4′-difluorobiphenyl-4-yl)ethyl]-1,4-oxazepane-2-carboxamide] | 7.16 | –
Cn1c(=O)oc2c(F)cc(-c3ccc(C[C@@H](C#N)NC(=O)[C@@H]4CNCCCO4)cc3)cc21 [Example 15, (2S)-N-{(1S)-1-Cyano-2-[4-(7-fluoro-3-methyl-2-oxo-2,3-dihydro-1,3-benzoxazol-5-yl)phenyl]ethyl}-1,4-oxazepane-2-carboxamide] | 8.29 | –
CCn1c(=O)oc2c(C)cc(-c3ccc(C[C@@H](C#N)NC(=O)[C@@H]4CNCCCO4)cc3)cc21 [Example 10, (2S)-N-{(1S)-1-Cyano-2-[4-(3-ethyl-7-methyl-2-oxo-2,3-dihydro-1,3-benzoxazol-5-yl)phenyl]ethyl}-1,4-oxazepane-2-carboxamide] | 7.67 | –
N#C[C@H](Cc1ccc(-c2ccc3oc(=O)n(CC4CC4)c3c2)cc1)NC(=O)[C@@H]1CNCCCO1 [Example 17, (2S)-N-[(1S)-1-Cyano-2-{4-[3-(cyclopropylmethyl)-2-oxo-2,3-dihydro-1,3-benzoxazol-5-yl]phenyl}ethyl]-1,4-oxazepane-2-carboxamide] | 8.2 | –
N#C[C@H](Cc1ccc(-c2ccc3oc(=O)n(CC4CCOCC4)c3c2)cc1)NC(=O)[C@@H]1CNCCCO1 [Example 25, (2S)-N-[(1S)-1-Cyano-2-{4-[2-oxo-3-(tetrahydro-2H-pyran-4-ylmethyl)-2,3-dihydro-1,3-benzoxazol-5-yl]phenyl}ethyl]-1,4-oxazepane-2-carboxamide] | 7.97 | –
N#Cc1ccc(-c2ccc(C[C@@H](C#N)NC(=O)[C@@H]3CNCCCO3)cc2)cn1 [Example 8, (2S)-N-{(1S)-1-Cyano-2-[4-(6-cyanopyridin-3-yl)phenyl]ethyl}-1,4-oxazepane-2-carboxamide] | 7.06 | –
N#C[C@H](Cc1ccc(-c2cc(F)c3oc(=O)n(CC(F)F)c3c2)cc1)NC(=O)[C@@H]1CNCCCO1 [Example 12, (2S)-N-[(1S)-1-Cyano-2-{4-[3-(2,2-difluoroethyl)-7-fluoro-2-oxo-2,3-dihydro-1,3-benzoxazol-5-yl]phenyl}ethyl]-1,4-oxazepane-2-carboxamide] | 8.0 | –
N#Cc1ccc(-c2ccc(C[C@@H](C#N)NC(=O)[C@@H]3CNCCCO3)cc2)s1 [Example 22, (2S)-N-{(1S)-1-Cyano-2-[4-(5-cyanothiophen-2-yl)phenyl]ethyl}-1,4-oxazepane-2-carboxamide] | 7.71 | –
N#C[C@H](Cc1ccc(-c2ccc(C(F)(F)F)cc2)cc1)NC(=O)[C@@H]1CNCCCO1 [Example 6, (2S)-N-{(1S)-1-Cyano-2-[4′-(trifluoromethyl)biphenyl-4-yl]ethyl}-1,4-oxazepane-2-carboxamide] | 7.44 | –
CC(C)(O)Cn1c(=O)oc2ccc(-c3ccc(C[C@@H](C#N)NC(=O)[C@@H]4CNCCCO4)cc3)cc21 [Example 11, (2S)-N-[(1S)-1-Cyano-2-{4-[3-(2-hydroxy-2-methylpropyl)-2-oxo-2,3-dihydro-1,3-benzoxazol-5-yl]phenyl}ethyl]-1,4-oxazepane-2-carboxamide] | 7.05 | –
COCCn1c(=O)sc2ccc(-c3ccc(C[C@@H](C#N)NC(=O)[C@@H]4CNCCCO4)cc3)cc21 [Example 18, (2S)-N-[(1S)-1-Cyano-2-{4-[3-(2-methoxyethyl)-2-oxo-2,3-dihydro-1,3-benzothiazol-5-yl]phenyl}ethyl]-1,4-oxazepane-2-carboxamide] | 8.5 | –
CN1C(=O)CSc2ccc(-c3ccc(C[C@@H](C#N)NC(=O)[C@@H]4CNCCCO4)cc3)cc21 [Example 9, (2S)-N-{(1S)-1-Cyano-2-[4-(4-methyl-3-oxo-3,4-dihydro-2H-1,4-benzothiazin-6-yl)phenyl]ethyl}-1,4-oxazepane-2-carboxamide] | 7.89 | –
Cn1c(=O)sc2ccc(-c3ccc(C[C@@H](C#N)NC(=O)[C@@H]4CNCCCO4)cc3)cc21 [Example 29, (2S)-N-{(1S)-1-Cyano-2-[4-(3-methyl-2-oxo-2,3-dihydro-1,3-benzothiazol-5-yl)phenyl]ethyl}-1,4-oxazepane-2-carboxamide] | 8.62 | –
N#C[C@H](Cc1ccc(-c2ccc(F)cc2)cc1)NC(=O)[C@@H]1CNCCCO1 [Example 32, (2S)-N-[(1S)-1-Cyano-2-(4′-fluorobiphenyl-4-yl)ethyl]-1,4-oxazepane-2-carboxamide] | 7.37 | –
N#Cc1ccc(-c2ccc(C[C@@H](C#N)NC(=O)C3CNCCCO3)cc2)cc1 (mixture of isomers) [Example 34, Diastereomeric mixture of (2S)-N-[(1S)-1-cyano-2-(4′-cyanobiphenyl-4-yl)ethyl]-1,4-oxazepane-2-carboxamide and (2R)—N-[(1S)-1-cyano-2-(4′-cyanobiphenyl-4-yl)ethyl]-1,4-oxazepane-2-carboxamide] | – | 60.3 nM
N#C[C@H](Cc1ccc(-c2ccc(S(=O)(=O)N3CCC3)cc2)cc1)NC(=O)[C@@H]1CNCCCO1 [Example 31, (2S)-N-{(1S)-2-[4′-(Azetidin-1-ylsulfonyl)biphenyl-4-yl]-1-cyanoethyl}-1,4-oxazepane-2-carboxamide] | 7.67 | –
